Measurements from the Kinase Knowledgebase extract (Sharma et al. 2016).

These compounds were tested against EGFR (human) (UniProt P00533).
EGFR (human), sequence (P00533 whole entry, looked up): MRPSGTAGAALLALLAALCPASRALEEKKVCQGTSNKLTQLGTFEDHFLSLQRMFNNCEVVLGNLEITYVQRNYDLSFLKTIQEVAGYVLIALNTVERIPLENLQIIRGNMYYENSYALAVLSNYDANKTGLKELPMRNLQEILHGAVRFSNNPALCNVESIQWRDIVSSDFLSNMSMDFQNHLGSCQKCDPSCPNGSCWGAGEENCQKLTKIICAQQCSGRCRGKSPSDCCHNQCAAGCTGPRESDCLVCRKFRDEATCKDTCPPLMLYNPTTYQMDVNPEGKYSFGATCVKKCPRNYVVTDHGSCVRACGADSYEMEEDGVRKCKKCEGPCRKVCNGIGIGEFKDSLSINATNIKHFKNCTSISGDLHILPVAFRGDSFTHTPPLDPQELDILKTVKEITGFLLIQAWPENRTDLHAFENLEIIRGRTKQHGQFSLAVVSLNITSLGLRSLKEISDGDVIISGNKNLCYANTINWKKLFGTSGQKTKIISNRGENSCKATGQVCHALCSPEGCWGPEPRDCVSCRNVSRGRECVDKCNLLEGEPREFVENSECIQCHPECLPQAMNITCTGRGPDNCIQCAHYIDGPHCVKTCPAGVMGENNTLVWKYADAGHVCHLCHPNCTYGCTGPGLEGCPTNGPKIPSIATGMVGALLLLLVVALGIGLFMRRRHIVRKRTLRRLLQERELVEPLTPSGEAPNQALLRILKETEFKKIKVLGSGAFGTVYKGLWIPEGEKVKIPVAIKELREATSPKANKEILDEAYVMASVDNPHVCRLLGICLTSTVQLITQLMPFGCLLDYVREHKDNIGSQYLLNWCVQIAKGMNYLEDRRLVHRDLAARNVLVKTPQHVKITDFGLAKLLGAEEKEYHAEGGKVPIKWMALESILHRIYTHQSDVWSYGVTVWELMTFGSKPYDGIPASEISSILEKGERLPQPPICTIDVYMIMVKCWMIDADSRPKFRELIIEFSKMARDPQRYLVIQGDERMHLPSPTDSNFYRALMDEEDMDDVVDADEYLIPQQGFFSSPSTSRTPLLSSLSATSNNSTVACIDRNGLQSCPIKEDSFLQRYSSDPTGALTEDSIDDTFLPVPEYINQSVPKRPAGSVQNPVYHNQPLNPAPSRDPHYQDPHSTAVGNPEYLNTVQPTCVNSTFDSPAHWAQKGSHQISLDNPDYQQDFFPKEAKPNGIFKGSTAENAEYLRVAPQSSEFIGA

SMILES	IC50 [µM]
COC[C@@H]1CCCN1N=Cc1ccc2ncnc(Nc3ccc(COc4cccc(F)c4)c(Cl)c3)c2c1	0.344
CC#CC(=NOCC(=O)NCCOS(C)(=O)=O)c1ccc2ncnc(Nc3ccc(COc4cccc(F)c4)c(Cl)c3)c2c1	0.047
CC#CC(=NOC[C@@H]1COCCN1)c1ccc2ncnc(Nc3ccc(OCc4ccccn4)c(Cl)c3)c2c1	0.0062
CC#CC(=NOC[C@@H]1C[C@H](O)CN1)c1ccc2ncnc(Nc3ccc4c(cnn4Cc4cccc(F)c4)c3)c2c1	0.0097
CN(N=Cc1ccc2ncnc(Nc3ccc(COc4cccc(F)c4)c(Cl)c3)c2c1)c1ccccc1	0.426
CC#CC(=NOC[C@H]1COCCN1)c1ccc2ncnc(Nc3ccc(OCc4cccc(F)c4)c(Cl)c3)c2c1	0.118

Results, then the compound that gave them:

IC50 [µM]	SMILES
0.02	CC#CC(=NOCC(=O)NCCN(C)C)c1ccc2ncnc(Nc3ccc(COc4cccc(F)c4)c(Cl)c3)c2c1
0.275	C#CCN1CCC[C@H]1CON=C(C#CC)c1ccc2ncnc(Nc3ccc(OCc4cccc(F)c4)c(Cl)c3)c2c1
0.193	Fc1cccc(OCc2ccc(Nc3ncnc4ccc(C=NN5CCCCC5)cc34)cc2Cl)c1
0.122	CC#CC(=NOCC(=O)NCCO)c1ccc2ncnc(Nc3ccc(COc4cccc(F)c4)c(Cl)c3)c2c1
0.101	CC#CC(=NOC[C@@H]1COCCN1)c1ccc2ncnc(Nc3ccc(OCc4cccc(F)c4)c(Cl)c3)c2c1
